Results as given in paper PMC6934184, “Selective DNA-PKcs inhibition extends the therapeutic index of localized radiotherapy and chemotherapy” (The Journal of Clinical Investigation, 2019).

Target: T1, CDK3/cyclin E1 (Homo sapiens, UniProt Q00526)
T1 construct: purchased Thermo Fisher Scientific (Life Technologies) SelectScreen
Experiment: SelectScreen LanthaScreen
Assay type: binding
Conditions: 1 µM
In short: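 Percent values come from Thermo SelectScreen profiling of NU5455, combining activity and binding assays. CSF1R was run in Z'LYTE format at Km app ATP, and CAMK1 in Adapta format with ATP listed at 10.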

T1 sequence (Q00526 whole entry): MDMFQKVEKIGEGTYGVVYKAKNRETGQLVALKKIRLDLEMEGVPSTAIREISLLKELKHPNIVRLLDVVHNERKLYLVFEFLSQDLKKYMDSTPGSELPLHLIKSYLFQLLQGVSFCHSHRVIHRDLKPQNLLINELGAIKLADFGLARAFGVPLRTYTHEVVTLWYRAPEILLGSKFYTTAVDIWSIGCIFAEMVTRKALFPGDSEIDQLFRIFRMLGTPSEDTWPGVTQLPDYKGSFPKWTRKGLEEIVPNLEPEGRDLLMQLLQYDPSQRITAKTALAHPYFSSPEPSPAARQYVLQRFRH
T1 sequence (P24864 whole entry partner): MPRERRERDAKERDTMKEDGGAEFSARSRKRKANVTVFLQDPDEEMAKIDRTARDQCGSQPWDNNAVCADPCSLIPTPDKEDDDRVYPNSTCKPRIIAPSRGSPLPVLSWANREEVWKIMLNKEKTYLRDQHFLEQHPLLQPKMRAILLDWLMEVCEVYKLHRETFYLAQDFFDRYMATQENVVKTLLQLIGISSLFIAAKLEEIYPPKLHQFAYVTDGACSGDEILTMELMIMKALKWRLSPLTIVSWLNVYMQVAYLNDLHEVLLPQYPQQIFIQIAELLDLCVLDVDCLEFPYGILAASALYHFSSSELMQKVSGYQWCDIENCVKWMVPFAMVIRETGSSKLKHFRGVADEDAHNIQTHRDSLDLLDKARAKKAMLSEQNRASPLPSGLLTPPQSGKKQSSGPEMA

## CN(C(=O)CN1CCOCC1)c1ccc2sc3c(-c4cccc5c(=O)cc(N6CC7CCC(C6)O7)oc45)cccc3c2c1 [NU5455]
  % displacement: 1.9%
